This note sets out measurements from paper PMC5218480 (PLoS ONE, 2017).

The subject of the assay is MV-4-11 cells. The assay can be described thus: Gene expression microarray analysis (Affymetrix PrimeView) and GSEA. Type of assay: cell-based, human. Also on record: RFU PODN (11730768_x_at) / Fold change /veh PODN (11730768_x_at) / RFU LINC00158 (11744669_a_at) / Fold change /veh LINC00158 (11744669_a_at) / RFU DUSP10 (11751237_a_at) / Fold change /veh DUSP10 (11751237_a_at) / RFU ID3 (11757404_x_at) / Fold change /veh ID3 (11757404_x_at) / RFU PLEKHG5 (11737974_s_at) / Fold change /veh PLEKHG5 (11737974_s_at) / RFU LRRC4B (11730491_at) / Fold change /veh LRRC4B (11730491_at) / RFU GIMAP4 (11747438_a_at) / Fold change /veh GIMAP4 (11747438_a_at) / RFU KRT8 (11758183_x_at) / Fold change /veh KRT8 (11758183_x_at) / RFU CNN1 (11734310_a_at) / Fold change /veh CNN1 (11734310_a_at) / RFU VPS37D (11726825_at) / Fold change /veh VPS37D (11726825_at) / RFU C10orf10 (11716522_x_at) / Fold change /veh C10orf10 (11716522_x_at) / RFU KIR2DL2 /// KIR2DL4 /// KIR2DL5A /// KIR2DL5B /// KIR2DS1 /// KIR2DS2 /// KIR2DS3 /// KIR2DS4 /// KIR3DL3 /// KIR3DL3 /// KIR3DS1 (11738374_at) / Fold change /veh KIR2DL2 /// KIR2DL4 /// KIR2DL5A /// KIR2DL5B /// KIR2DS1 /// KIR2DS2 /// KIR2DS3 /// KIR2DS4 /// KIR3DL3 /// KIR3DL3 /// KIR3DS1 (11738374_at) / RFU C1QL1 (11718748_at) / Fold change /veh C1QL1 (11718748_at) / RFU TMPRSS4 (11747572_a_at) / Fold change /veh TMPRSS4 (11747572_a_at) / RFU HAMP (11756126_x_at) / Fold change /veh HAMP (11756126_x_at) / RFU RNFT2 (11725882_a_at) / Fold change /veh RNFT2 (11725882_a_at) / RFU NR4A2 (11747474_a_at) / Fold change /veh NR4A2 (11747474_a_at) / RFU ABCC12 (11746883_a_at) / Fold change /veh ABCC12 (11746883_a_at) / RFU TMEM136 (11760407_x_at) / Fold change /veh TMEM136 (11760407_x_at) / RFU CLDN22 /// WWC2 (11732394_at) / Fold change /veh CLDN22 /// WWC2 (11732394_at) / RFU HLA-DPB1 (11760878_x_at) / Fold change /veh HLA-DPB1 (11760878_x_at) / RFU SPINT1 (11716480_a_at) / Fold change /veh SPINT1 (11716480_a_at) / RFU GAP43 (11754022_s_at) / Fold change /veh GAP43 (11754022_s_at) / RFU A4GNT (11735810_at) / Fold change /veh A4GNT (11735810_at) / RFU PRB3 (11715151_x_at) / Fold change /veh PRB3 (11715151_x_at) / RFU TUBB4B (11761932_at) / Fold change /veh TUBB4B (11761932_at) / RFU CAPN14 (11732068_a_at) / Fold change /veh CAPN14 (11732068_a_at) / RFU TMCC2 (11721928_a_at) / Fold change /veh TMCC2 (11721928_a_at) / RFU IRGQ (11745062_a_at) / Fold change /veh IRGQ (11745062_a_at) / RFU FAM174B (11720279_a_at) / Fold change /veh FAM174B (11720279_a_at) / RFU TMPRSS4 (11748680_a_at) / Fold change /veh TMPRSS4 (11748680_a_at) / RFU FAM212B (11763350_a_at) / Fold change /veh FAM212B (11763350_a_at) / RFU PLEKHG5 (11743358_a_at) / Fold change /veh PLEKHG5 (11743358_a_at) / RFU ZSCAN30 (11745921_a_at) / Fold change /veh ZSCAN30 (11745921_a_at) / RFU CMKLR1 (11741424_a_at) / Fold change /veh CMKLR1 (11741424_a_at) / RFU LOC101060620 /// MAPK8IP1 (11723275_at) / Fold change /veh LOC101060620 /// MAPK8IP1 (11723275_at) / RFU SPTSSB (11747773_x_at) / Fold change /veh SPTSSB (11747773_x_at) / RFU PRSS12 (11739890_at) / Fold change /veh PRSS12 (11739890_at) / RFU BIN1 (11741810_x_at) / Fold change /veh BIN1 (11741810_x_at) / RFU WNT11 (11732464_a_at) / Fold change /veh WNT11 (11732464_a_at) / RFU C10orf10 (11716521_a_at) / Fold change /veh C10orf10 (11716521_a_at) / RFU C5orf56 (11738089_at) / Fold change /veh C5orf56 (11738089_at) / RFU CYB561 (11721691_x_at) / Fold change /veh CYB561 (11721691_x_at) / RFU ANKRD19P (11752326_a_at) / Fold change /veh ANKRD19P (11752326_a_at) / RFU OR2T12 /// OR2T33 /// OR2T8 (11738714_s_at) / Fold change /veh OR2T12 /// OR2T33 /// OR2T8 (11738714_s_at) / RFU VCAN (11748164_a_at) / Fold change /veh VCAN (11748164_a_at) / RFU JSRP1 (11732532_at) / Fold change /veh JSRP1 (11732532_at) / RFU KRTAP10-11 (11738290_x_at) / Fold change /veh KRTAP10-11 (11738290_x_at) / RFU MYO3A (11730013_a_at) / Fold change /veh MYO3A (11730013_a_at) / RFU EBF3 (11725865_a_at) / Fold change /veh EBF3 (11725865_a_at) / RFU CAMK2N1 (11719241_x_at) / Fold change /veh CAMK2N1 (11719241_x_at) / RFU C5orf56 (11738088_a_at) / Fold change /veh C5orf56 (11738088_a_at) / RFU OLFML3 (11715873_a_at) / Fold change /veh OLFML3 (11715873_a_at) / RFU LOC100653217 /// NTM (11731650_a_at) / Fold change /veh LOC100653217 /// NTM (11731650_a_at) / RFU MAPK11 (11762145_a_at) / Fold change /veh MAPK11 (11762145_a_at) / RFU FIZ1 (11724087_x_at) / Fold change /veh FIZ1 (11724087_x_at) / RFU OASL (11726364_x_at) / Fold change /veh OASL (11726364_x_at) / RFU SOX15 (11748057_x_at) / Fold change /veh SOX15 (11748057_x_at) / RFU CD79A (11719716_a_at) / Fold change /veh CD79A (11719716_a_at) / RFU HIST1H1D (11736915_at) / Fold change /veh HIST1H1D (11736915_at) / RFU CASKIN2 (11723855_a_at) / Fold change /veh CASKIN2 (11723855_a_at) / RFU LOC730098 (11760151_x_at) / Fold change /veh LOC730098 (11760151_x_at) / RFU OR4N2 (11742367_at) / Fold change /veh OR4N2 (11742367_at) / RFU PRRT2 (11749266_a_at) / Fold change /veh PRRT2 (11749266_a_at) / RFU SNX32 (11753110_a_at) / Fold change /veh SNX32 (11753110_a_at) / RFU CDHR5 (11726645_a_at) / Fold change /veh CDHR5 (11726645_a_at) / RFU RCAN1 (11760418_a_at) / Fold change /veh RCAN1 (11760418_a_at) / RFU FAM167A (11723789_a_at) / Fold change /veh FAM167A (11723789_a_at) / RFU FAM26E (11764081_at) / Fold change /veh FAM26E (11764081_at) / RFU ISYNA1 (11749810_s_at) / Fold change /veh ISYNA1 (11749810_s_at) / RFU ACY1 (11761880_at) / Fold change /veh ACY1 (11761880_at) / RFU 11764098_at / Fold change /veh 11764098_at / RFU SAMD14 (11745864_x_at) / Fold change /veh SAMD14 (11745864_x_at) / RFU NPB (11741838_a_at) / Fold change /veh NPB (11741838_a_at) / RFU TMPRSS6 (11731388_a_at) / Fold change /veh TMPRSS6 (11731388_a_at) / RFU KRTAP10-2 (11738614_at) / Fold change /veh KRTAP10-2 (11738614_at) / RFU ARHGAP8 /// PRR5-ARHGAP8 (11727945_x_at) / Fold change /veh ARHGAP8 /// PRR5-ARHGAP8 (11727945_x_at) / RFU KRTAP5-7 /// NADSYN1 (11734609_at) / Fold change /veh KRTAP5-7 /// NADSYN1 (11734609_at) / RFU RASL12 (11751679_a_at) / Fold change /veh RASL12 (11751679_a_at) / RFU CDKN2B (11736163_a_at) / Fold change /veh CDKN2B (11736163_a_at) / RFU PRF1 (11729649_at) / Fold change /veh PRF1 (11729649_at) / RFU, ZNF638 /// ZNF638-IT1 / Fold change vs veh, ZNF638 /// ZNF638-IT1 / RFU, PANK3 / Fold change vs veh, PANK3 / RFU, SH3YL1 / Fold change vs veh, SH3YL1 / RFU, ZEB2 / Fold change vs veh, ZEB2 / RFU, NRIP1 / Fold change vs veh, NRIP1 / RFU, PTTG1IP / Fold change vs veh, PTTG1IP / RFU, CAPN2 / Fold change vs veh, CAPN2 / RFU, MED14 / Fold change vs veh, MED14 / RFU, SNORA58 / Fold change vs veh, SNORA58 / RFU, C1orf63 / Fold change vs veh, C1orf63 / RFU, LRRFIP1 / Fold change vs veh, LRRFIP1 / RFU, NDUFAF7 / Fold change vs veh, NDUFAF7 / RFU, SLC12A2 / Fold change vs veh, SLC12A2 / RFU, IBTK / Fold change vs veh, IBTK / RFU, ESF1 / Fold change vs veh, ESF1 / Fold change vs veh, TMEM50B / RFU, TAOK1 / Fold change vs veh, TAOK1 / RFU, ACBD3 / Fold change vs veh, ACBD3 / RFU, TMA16 / Fold change vs veh, TMA16 / RFU, RWDD3 / Fold change vs veh, RWDD3 / RFU, BCAT1 / Fold change vs veh, BCAT1 / RFU, EDEM3 / Fold change vs veh, EDEM3 / RFU, TMEM33 / Fold change vs veh, TMEM33 / RFU, WDR75 / Fold change vs veh, WDR75 / RFU, AHCTF1 / Fold change vs veh, AHCTF1 / RFU, TFRC / Fold change vs veh, TFRC / RFU, ZDHHC17 / Fold change vs veh, ZDHHC17 / RFU, NOM1 / Fold change vs veh, NOM1 / RFU, ARL8B / Fold change vs veh, ARL8B / RFU, ZBTB11 / Fold change vs veh, ZBTB11 / RFU, TAMM41 / Fold change vs veh, TAMM41 / RFU, KIAA1704 /// LOC100996395 / Fold change vs veh, KIAA1704 /// LOC100996395 / RFU, ING1 / Fold change vs veh, ING1 / RFU, TRMT61B / Fold change vs veh, TRMT61B / RFU, FUBP3 / Fold change vs veh, FUBP3 / RFU, TP53 / Fold change vs veh, TP53 / RFU, TNKS2 / Fold change vs veh, TNKS2 / RFU, ZFP14 / Fold change vs veh, ZFP14 / RFU, ACTR2 / Fold change vs veh, ACTR2 / RFU, PPP3R1 / Fold change vs veh, PPP3R1 / RFU, PIK3R1 / Fold change vs veh, PIK3R1 / RFU, HNRNPA1 / Fold change vs veh, HNRNPA1 / RFU, RNF170 / Fold change vs veh, RNF170 / RFU, ZNF28 / Fold change vs veh, ZNF28 / RFU, RNGTT / Fold change vs veh, RNGTT / RFU, OGT / Fold change vs veh, OGT / RFU, BRD1 / Fold change vs veh, BRD1 / RFU, MARS / Fold change vs veh, MARS / RFU, ZNF655 / Fold change vs veh, ZNF655 / RFU, FAHD1 / Fold change vs veh, FAHD1 / RFU, BDP1 / Fold change vs veh, BDP1 / RFU, LRRCC1 / Fold change vs veh, LRRCC1 / RFU, ARID1A / Fold change vs veh, ARID1A / RFU, ZNF146 / Fold change vs veh, ZNF146 / RFU, ZNF330 / Fold change vs veh, ZNF330 / RFU, GPN3 / Fold change vs veh, GPN3 / RFU, C9orf123 / Fold change vs veh, C9orf123 / RFU, N4BP2L2 / Fold change vs veh, N4BP2L2 / RFU, ARFIP1 / Fold change vs veh, ARFIP1 / RFU, FAM179B / Fold change vs veh, FAM179B / RFU, BCL10 / Fold change vs veh, BCL10 / RFU, UHRF1BP1L / Fold change vs veh, UHRF1BP1L / RFU, BET1 / Fold change vs veh, BET1 / RFU, CNOT2 / Fold change vs veh, CNOT2 / RFU, ZNF268 / Fold change vs veh, ZNF268 / Fold change vs veh, ZNF507 / RFU, DGCR2 / Fold change vs veh, DGCR2 / RFU, WDSUB1 / Fold change vs veh, WDSUB1 / Fold change vs veh, HSP90B1 /// MIR3652 / RFU, ADSS / Fold change vs veh, ADSS / RFU, GK / Fold change vs veh, GK / RFU, ZNF148 / Fold change vs veh, ZNF148 / RFU, TAF9 / Fold change vs veh, TAF9 / RFU, SLC1A5 / Fold change vs veh, SLC1A5 / RFU, SLMO2 / Fold change vs veh, SLMO2 / RFU, ABCC4 / Fold change vs veh, ABCC4 / RFU, LOC101060439 /// RAP1B / Fold change vs veh, LOC101060439 /// RAP1B / RFU, RFX7 / Fold change vs veh, RFX7 / RFU, GTPBP10 / Fold change vs veh, GTPBP10 / RFU, CNEP1R1 / Fold change vs veh, CNEP1R1 / RFU, BIVM-ERCC5 /// ERCC5 / Fold change vs veh, BIVM-ERCC5 /// ERCC5 / RFU, ILF3 / Fold change vs veh, ILF3 / RFU 11762660_at / Fold change /veh 11762660_at / RFU VCAN (11757783_s_at) / Fold change /veh VCAN (11757783_s_at) / RFU DDX43 (11728927_at) / Fold change /veh DDX43 (11728927_at) / RFU KRT8 (11758188_x_at) / Fold change /veh KRT8 (11758188_x_at) / RFU NKD1 (11759106_at) / Fold change /veh NKD1 (11759106_at) / RFU SRD5A1 (11742802_a_at) / Fold change /veh SRD5A1 (11742802_a_at) / RFU TPSAB1 /// TPSB2 (11721975_s_at) / Fold change /veh TPSAB1 /// TPSB2 (11721975_s_at) / RFU GSTM3 (11746129_a_at) / Fold change /veh GSTM3 (11746129_a_at) / RFU IL23R (11737362_x_at) / Fold change /veh IL23R (11737362_x_at) / RFU TMEM51 (11727254_a_at) / Fold change /veh TMEM51 (11727254_a_at) / RFU PIWIL2 (11732686_x_at) / Fold change /veh PIWIL2 (11732686_x_at) / RFU ORM1 (11744905_x_at) / Fold change /veh ORM1 (11744905_x_at) / RFU CCDC152 (11743942_at) / Fold change /veh CCDC152 (11743942_at) / RFU ECM1 (11717891_a_at) / Fold change /veh ECM1 (11717891_a_at) / RFU IL23R (11748794_a_at) / Fold change /veh IL23R (11748794_a_at) / RFU TNFAIP8L3 (11732012_x_at) / Fold change /veh TNFAIP8L3 (11732012_x_at) / RFU MBOAT4 (11741988_at) / Fold change /veh MBOAT4 (11741988_at) / RFU 11764193_at / Fold change /veh 11764193_at / RFU TMEM53 (11763286_at) / Fold change /veh TMEM53 (11763286_at) / RFU MAGEB2 (11727129_at) / Fold change /veh MAGEB2 (11727129_at) / RFU TMEM200A (11744735_a_at) / Fold change /veh TMEM200A (11744735_a_at) / RFU CCDC152 (11751479_a_at) / Fold change /veh CCDC152 (11751479_a_at) / RFU FAM211A (11726209_a_at) / Fold change /veh FAM211A (11726209_a_at) / RFU RGS16 (11746705_a_at) / Fold change /veh RGS16 (11746705_a_at) / RFU VCAN (11755009_s_at) / Fold change /veh VCAN (11755009_s_at) / RFU RHOB (11743442_s_at) / Fold change /veh RHOB (11743442_s_at) / RFU RGS16 (11720943_a_at) / Fold change /veh RGS16 (11720943_a_at) / RFU RGS16 (11720944_at) / Fold change /veh RGS16 (11720944_at) / RFU, VPS4B / Fold change vs veh, VPS4B / RFU, CREB1 / Fold change vs veh, CREB1 / RFU, DNAJC13 / Fold change vs veh, DNAJC13 / RFU, GNAQ / Fold change vs veh, GNAQ / RFU, CDK5R1 / Fold change vs veh, CDK5R1 / RFU, ZRANB3 / Fold change vs veh, ZRANB3 / RFU, CUL4A / Fold change vs veh, CUL4A / RFU, CCNY / Fold change vs veh, CCNY / RFU, UFL1 / Fold change vs veh, UFL1 / RFU, COG3 / Fold change vs veh, COG3 / RFU, DIAPH2 / Fold change vs veh, DIAPH2 / RFU, SKA2 / Fold change vs veh, SKA2 / RFU, AFF3 / Fold change vs veh, AFF3 / RFU, LMF1 / Fold change vs veh, LMF1 / RFU, IPO11 / Fold change vs veh, IPO11 / RFU, DFFB / Fold change vs veh, DFFB / RFU, FOXP1 / Fold change vs veh, FOXP1 / RFU, CARD8 / Fold change vs veh, CARD8 / RFU, STRN3 / Fold change vs veh, STRN3 / RFU, ADK / Fold change vs veh, ADK / RFU, RASSF2 / Fold change vs veh, RASSF2 / RFU, WIPF1 / Fold change vs veh, WIPF1 / RFU, LARP1B / Fold change vs veh, LARP1B / RFU, RASA1 / Fold change vs veh, RASA1 / RFU, RB1 / Fold change vs veh, RB1 / RFU, PPFIA1 / Fold change vs veh, PPFIA1 / RFU, MAT2A / Fold change vs veh, MAT2A / RFU, CCT5 / Fold change vs veh, CCT5 / RFU, WDR92 / Fold change vs veh, WDR92 / RFU, CUX1 / Fold change vs veh, CUX1 / RFU, TTC7A / Fold change vs veh, TTC7A / RFU, TMEM135 / Fold change vs veh, TMEM135 / RFU, DEPTOR / Fold change vs veh, DEPTOR / RFU, CPM / Fold change vs veh, CPM / RFU, DNAJB6 / Fold change vs veh, DNAJB6 / RFU, CACNA2D3 / Fold change vs veh, CACNA2D3 / RFU, DTX4 / Fold change vs veh, DTX4 / RFU, TFCP2 / Fold change vs veh, TFCP2 / RFU, GMCL1 /// GMCL1P1 / Fold change vs veh, GMCL1 /// GMCL1P1 / RFU, AEBP2 / Fold change vs veh, AEBP2 / RFU, SNHG1 /// SNORD22 /// SNORD25 /// SNORD26 /// SNORD27 /// SNORD28 /// SNORD29 /// SNORD31 / Fold change vs veh, SNHG1 /// SNORD22 /// SNORD25 /// SNORD26 /// SNORD27 /// SNORD28 /// SNORD29 /// SNORD31 / Fold change (Aza/veh), C12orf56 (ProbeSet 11735607_a_at) / Fold change (ACY-1035/veh), C12orf56 (ProbeSet 11735607_a_at) / Fold change (Aza/veh), FGFR1OP (ProbeSet 11751329_s_at) / Fold change (ACY-1035/veh), FGFR1OP (ProbeSet 11751329_s_at) / Fold change (Aza/veh), VPS36 (ProbeSet 11739960_a_at) / Fold change (ACY-1035/veh), VPS36 (ProbeSet 11739960_a_at) / RFU SYPL1 (11715823_x_at) / Fold change /veh SYPL1 (11715823_x_at) / RFU IGFBP7 (11715501_s_at) / Fold change /veh IGFBP7 (11715501_s_at) / RFU REEP3 (11722064_at) / Fold change /veh REEP3 (11722064_at) / RFU IGLL1 (11728026_x_at) / Fold change /veh IGLL1 (11728026_x_at): dose or concentration left out as unconfirmed. To be noted: MV-4-11 cells, 48 hours.

Take `Nc1ncn([C@@H]2O[C@H](CO)[C@@H](O)[C@H]2O)c(=O)n1` [azacitidine]: the “RFU RCAN1 (11760418_a_at)” value was found to be 18.64 RFU.
